From ChEMBL document CHEMBL1152547, “Synthesis and evaluation of anticancer activity of 2-arylamino-6-trifluoromethyl-3-(hydrazonocarbonyl)pyridines” (Bioorg Med Chem, 2009)

Columns and labels:
[1] = Cytotoxicity against human NCI60 cells after 48 hrs by sulforhodamine B assay; assay type: functional; details: NCI60, 48 h, read-out: pTGI (converted)
EKVX = assay: Cytotoxicity against human EKVX cells after 48 hrs by sulforhodamine B assay; assay type: functional
T47D = assay: Cytotoxicity against human T47D cells after 48 hrs by sulforhodamine B assay; assay type: functional
[2] = Toxicity in ip dosed athymic mouse assessed as lethality administered as single dose measured after 2 weeks; assay type: organism-based; details: in vivo
NCI-H226 = assay: Cytotoxicity against human NCI-H226 cells after 48 hrs by sulforhodamine B assay; assay type: functional; details: NCI-H226, 48 h
TK-10 = assay: Cytotoxicity against human TK10 cells after 48 hrs by sulforhodamine B assay; assay type: functional; details: TK-10, 48 h
[3] = Cytotoxicity against human NCI60 cells assessed as cell growth at 10 uM after 48 hrs by sulforhodamine B assay; assay type: functional; details: NCI60, 48 h, read-out: Activity
HOP-92 = assay: Cytotoxicity against human HOP92 cells after 48 hrs by sulforhodamine B assay; assay type: functional; details: HOP-92, 48 h
SF-295 = assay: Cytotoxicity against human SF295 cells after 48 hrs by sulforhodamine B assay; assay type: functional; details: SF-295, 48 h
BT-549 = assay: Cytotoxicity against human BT549 cells after 48 hrs by sulforhodamine B assay; assay type: functional; details: BT-549, 48 h
MCF7 = assay: Cytotoxicity against human MCF7 cells after 48 hrs by sulforhodamine B assay; assay type: functional; details: MCF7, 48 h
MDA-MB-468 = assay: Cytotoxicity against human MDA-MB-468 cells after 48 hrs by sulforhodamine B assay; assay type: functional; details: MDA-MB-468, 48 h
[4] = Toxicity in ip dosed athymic mouse assessed as body weight loss administered as single dose measured after 2 weeks; assay type: organism-based; details: in vivo
MDA-MB-231 = assay: Cytotoxicity against human MDA-MB-231 cells after 48 hrs by sulforhodamine B assay; assay type: functional; details: MDA-MB-231, 48 h
PC-3 = assay: Cytotoxicity against human PC3 cells after 48 hrs by sulforhodamine B assay; assay type: functional; details: PC-3, 48 h
CAKI-1 = assay: Cytotoxicity against human Caki1 cells after 48 hrs by sulforhodamine B assay; assay type: functional; details: CAKI-1, 48 h

Compound `Cc1cc(Cl)ccc1Nc1nc(C(F)(F)F)ccc1C(=O)N/N=C/c1c(Cl)cccc1Cl` has a TGI [1] of 11700 nM, a GI50 (EKVX) of 195 nM and a TGI (EKVX; read-out: pTGI (converted)) of 708 nM. For the same compound, the GI50 (T47D) was 224 nM, the TGI (T47D; read-out: pTGI (converted)) was 794 nM and the MTD at 336 h [2] was 400 mg/kg. It also gave a GI50 (NCI-H226) of 135 nM, a TGI (NCI-H226; read-out: pTGI (converted)) of 525 nM and a GI50 (TK-10) of 224 nM. For the same compound, the TGI (TK-10; read-out: pTGI (converted)) was 794 nM, the growth at 10 µM [3] was -6.89% and the GI50 (HOP-92) was 191 nM. It also gave a TGI (HOP-92; read-out: pTGI (converted)) of 537 nM, a GI50 (SF-295) of 24 nM and a TGI (SF-295; read-out: pTGI (converted)) of 295 nM. It also gave a GI50 (BT-549) of 195 nM, a TGI (BT-549; read-out: pTGI (converted)) of 676 nM and a GI50 (MCF7) of 234 nM. The TGI (MCF7; read-out: pTGI (converted)) was 741 nM, the GI50 (MDA-MB-468) was 275 nM and the TGI (MDA-MB-468; read-out: pTGI (converted)) was 851 nM. It also gave an MTD at 336 h [4] of 400 mg/kg, a GI50 (MDA-MB-231) of 155 nM and a TGI (MDA-MB-231; read-out: pTGI (converted)) of 851 nM. For the same compound, the GI50 (PC-3) was 229 nM, the TGI (PC-3; read-out: pTGI (converted)) was 871 nM and the GI50 (CAKI-1) was 12.6 nM. It also gave a CC50 (CAKI-1; read-out: pLC50 (the source's name) (converted)) of 43700 nM and a TGI (CAKI-1; read-out: pTGI (converted)) of 324 nM.
